The source of these data is ChEMBL document CHEMBL1857833, “Screening and optimization of specific chemical series against human African Trypanosomiasis (HAT)”.

Converted amounts (≈) assume the structure as drawn.

Data set [1] in a line: DNDI: Cytotoxicity against L929 mouse fibroblasts, 72 hour. Type of data set: toxicity, cell-based. The following applies: mouse, L929 mouse fibroblasts.
Another data set deals with Trypanosoma brucei. The experiment in a line: DNDI: Inhibition of Human African Trypanosomiasis, SBRI 427, in vitro. Type of data set: functional, organism-based.
[2] abbreviates: Trypanosoma brucei, SBRI 427, read-out: IC50.

On to `COc1ccc(S(=O)(=O)Nc2ccccn2)cc1`, for which, in data set [1], the IC50 at 72 h was greater than 10 µg/mL. In addition, the IC50 in the data set on Trypanosoma brucei (setting [2]) was greater than 5 µg/mL. In data set [1], `COc1ccc(S(=O)(=O)Nc2ccccn2)cc1OC` gave a half-maximal inhibitory concentration (IC50) at 72 h greater than 10 µg/mL. In the data set with Trypanosoma brucei (setting [2]), the IC50 is greater than 5 µg/mL. As to `COc1ccc(/C(=N/O)Nc2cccc(C)c2)cc1`, in data set [1], the IC50 at 72 h was greater than 10 µg/mL.

The compound `CCc1cccc(NS(=O)(=O)c2ccc(OC)cc2)c1` returned an IC50 at 72 h in data set [1] of 1.88 µg/mL (≈ 6.45 µM). Besides, the IC50 in the data set with Trypanosoma brucei (setting [2]) is greater than 5 µg/mL. As to `O/N=C1\COc2ccccc21`, in data set [1], the IC50 at 72 h is greater than 10 µg/mL. Besides, the IC50 in the data set on Trypanosoma brucei (setting [2]) was greater than 5 µg/mL. `CCCCNCc1coc(-c2ccc(CCCC)cc2)n1` gave a half-inhibitory concentration (IC50) at 72 h in data set [1] of 2.5 µg/mL (≈ 8.73 µM). Further, in the data set on Trypanosoma brucei (setting [2]), the 50% inhibitory concentration (IC50) amounted to 0.75 µg/mL (≈ 2.62 µM). Take `COc1ccc(CNC(c2nc(Cc3ccccc3)c(N3CCCCC3)o2)C2CCCCC2)cc1OC` (stereo not given): the IC50 at 72 h in data set [1] was greater than 10 µg/mL. The IC50 in the data set with Trypanosoma brucei (setting [2]) was greater than 5 µg/mL.

Take `CCCCc1ccc(-c2nc(CNC(CC)CC)co2)cc1`: inhibition in data set [1] was half-maximal at 1.83 µg/mL (≈ 6.09 µM) (IC50 at 72 h). For the same compound, the IC50 with Trypanosoma brucei (setting [2]) is 0.63 µg/mL (≈ 2.1 µM). The compound `CCCCc1ccc(-c2nc(CNCCCN3CCCCC3)co2)cc1` gave a half-maximal inhibitory concentration (IC50) at 72 h in data set [1] of 6.2 µg/mL (≈ 17.4 µM). Further, the IC50 in the data set with Trypanosoma brucei came to 1.48 µg/mL (≈ 4.16 µM); in the data set with Trypanosoma brucei (setting [2]), 2.01 µg/mL (≈ 5.65 µM). `CCCCc1ccc(-c2nc(CC)co2)cc1`: the IC50 at 72 h in data set [1] came out at 6.2 µg/mL (≈ 27 µM). In the data set with Trypanosoma brucei (setting [2]), the IC50 is greater than 5 µg/mL. With `CCCC(CCC)NCc1coc(-c2ccccc2OCC)n1`, the half-maximal inhibitory concentration (IC50) in the data set on Trypanosoma brucei (setting [2]) turned out to be 1.76 µg/mL (≈ 5.56 µM). On the same count and under the same terms, in the case of `C[C@H]1C(NCc2coc(-c3ccc(O)cc3)n2)C[C@@H]2C[C@H]1C2(C)C` (stereo not given in full) it was 1.36 µg/mL (≈ 4.17 µM). With `COc1ccc(/C=N/OCc2c(F)c(F)c(F)c(F)c2F)cc1`, the IC50 at 72 h in data set [1] was greater than 10 µg/mL. In addition, the IC50 with Trypanosoma brucei (setting [2]) was greater than 5 µg/mL. The corresponding values for `CCCCc1ccc(-c2nc(C)c(C)o2)cc1` are 5.21 µg/mL (≈ 22.7 µM) and greater than 5 µg/mL. The corresponding values for `CC(C)c1ccc(Oc2ncccc2/C(=N\O)NC2CCCCC2)cc1` are 6.75 µg/mL (≈ 19.1 µM) and 0.09 µg/mL (≈ 0.255 µM). `CCCCc1ccc(-c2nc(CNCCCN3CCCC3)co2)cc1`: in data set [1], the 50% inhibitory concentration (IC50) at 72 h is 6.03 µg/mL (≈ 17.7 µM). Also, the 50% inhibitory concentration (IC50) with Trypanosoma brucei came to 0.89 µg/mL (≈ 2.61 µM); in the data set with Trypanosoma brucei (setting [2]), 1.6 µg/mL (≈ 4.69 µM). Turning to `C[C@H]1C(NCc2coc(-c3cccc(F)c3)n2)C[C@@H]2C[C@H]1C2(C)C` (stereo not given in full), the IC50 with Trypanosoma brucei (setting [2]) worked out at 1.56 µg/mL (≈ 4.75 µM). On to `CCCCc1ccc(-c2nc(CNC3CCCCC3)co2)cc1`, for which the concentration for half-maximal inhibition (IC50) at 72 h in data set [1] worked out at 1.44 µg/mL (≈ 4.61 µM). Also, the concentration for half-maximal inhibition (IC50) with Trypanosoma brucei (setting [2]) is 0.41 µg/mL (≈ 1.31 µM).

`CCCCCCCCCCOc1ccc(-c2nc(CN[C@@H]3C[C@@H]4C[C@H]([C@H]3C)C4(C)C)co2)cc1` registered an IC50 at 72 h in data set [1] of 7.22 µg/mL (≈ 15.5 µM). In the data set on Trypanosoma brucei (setting [2]), the half-maximal inhibitory concentration (IC50) was greater than 5 µg/mL. As to `CCCCCC(C)NCc1coc(-c2ccc(CC)cc2)n1` (stereo not given), the IC50 at 72 h in data set [1] was 2.61 µg/mL (≈ 8.69 µM). Besides, the IC50 in the data set with Trypanosoma brucei (setting [2]) was 1 µg/mL (≈ 3.33 µM). Take `C[C@@H]1C(NCc2coc(-c3cccc(F)c3)n2)C[C@H]2C[C@@H]1C2(C)C` (stereo not given in full): in the data set with Trypanosoma brucei (setting [2]), the IC50 is 1.18 µg/mL (≈ 3.59 µM). In the case of `CCCCc1ccc(-c2nc(CNC3CCC3)co2)cc1`, half-maximal inhibition in data set [1] (IC50 at 72 h) was put at 3.51 µg/mL (≈ 12.3 µM). The half-inhibitory concentration (IC50) in the data set on Trypanosoma brucei (setting [2]) is 1.3 µg/mL (≈ 4.57 µM). For the compound `CCCCCCNCc1coc(-c2ccc(CCCC)cc2)n1`, the 50% inhibitory concentration (IC50) at 72 h in data set [1] worked out at 1.15 µg/mL (≈ 3.66 µM). For the same compound, the concentration for half-maximal inhibition (IC50) in the data set with Trypanosoma brucei (setting [2]) worked out at 0.37 µg/mL (≈ 1.18 µM). `Fc1c(F)c(F)c(CO/N=C/c2ccccc2-c2ccccc2)c(F)c1F`: the 50% inhibitory concentration (IC50) at 72 h in data set [1] was greater than 10 µg/mL. Also, the 50% inhibitory concentration (IC50) in the data set with Trypanosoma brucei (setting [2]) is greater than 5 µg/mL. For the compound `C(=N\Oc1ccccc1)/c1ccccc1-c1ccccc1`, in data set [1], the IC50 at 72 h was greater than 10 µg/mL. Besides, the half-inhibitory concentration (IC50) in the data set with Trypanosoma brucei (setting [2]) is greater than 5 µg/mL. `Cc1ccc(/C(=N/O)Nc2cccc(F)c2)c(Oc2c(F)cccc2F)n1` registered an IC50 at 72 h in data set [1] greater than 10 µg/mL. For the same compound, in the data set with Trypanosoma brucei (setting [2]), the half-inhibitory concentration (IC50) turned out to be 3.75 µg/mL (≈ 10 µM). The compound `CCC(C)C(NCc1cccc(C)c1)c1nc(-c2ccccc2)c(N2CCCCC2)o1` (stereo not given) had an IC50 at 72 h in data set [1] greater than 10 µg/mL. For the same compound, the 50% inhibitory concentration (IC50) in the data set on Trypanosoma brucei (setting [2]) is greater than 5 µg/mL.

`CCCCc1ccc(-c2nc(CNCCC)co2)cc1` gave a 50% inhibitory concentration (IC50) at 72 h in data set [1] of 4.29 µg/mL (≈ 15.7 µM). The IC50 in the data set on Trypanosoma brucei (setting [2]) was found to be 0.75 µg/mL (≈ 2.75 µM). Consider `COc1ccc(/C(=N/O)Nc2cccc(C(C)C)c2)cc1`, for which the IC50 at 72 h in data set [1] amounted to 5.81 µg/mL (≈ 20.4 µM). Further, the IC50 with Trypanosoma brucei (setting [2]) was determined as 1.41 µg/mL (≈ 4.96 µM). The corresponding values for `CCc1cccc(NS(=O)(=O)c2ccc(OC)c(OC)c2)c1` are greater than 10 µg/mL and greater than 5 µg/mL.

Consider `CCCCc1ccc(-c2nc(-c3cc(-c4ccccc4)no3)co2)cc1`, for which the IC50 at 72 h in data set [1] was greater than 10 µg/mL. Moreover, the half-inhibitory concentration (IC50) in the data set with Trypanosoma brucei (setting [2]) was greater than 5 µg/mL. The corresponding values for `COc1ccc(CNC(CC(C)C)c2nc(Cc3ccccc3)c(N3CCCCC3)o2)cc1OC` (stereo not given) are greater than 10 µg/mL and greater than 5 µg/mL. On to `O/N=C(\NCC1CCCCC1)c1ccc(Oc2ccc(-n3ccnc3)cc2)nc1`, for which, in the data set on Trypanosoma brucei (setting [2]), the IC50 was found to be 1.43 µg/mL (≈ 3.65 µM). In the case of `O/N=C(\NCc1ccccc1)c1cccnc1Oc1ccc(F)cc1Cl`, the half-inhibitory concentration (IC50) in the data set on Trypanosoma brucei (setting [2]) worked out at 0.62 µg/mL (≈ 1.67 µM). In data set [1], `Cc1ccc(/C(=N/O)NC2CCCCC2)c(Oc2cc(Cl)ccc2Cl)n1` displayed a half-maximal inhibitory concentration (IC50) at 72 h greater than 10 µg/mL. For the same compound, the IC50 in the data set on Trypanosoma brucei worked out at 2.27 µg/mL (≈ 5.76 µM); in the data set on Trypanosoma brucei (setting [2]) it was 1.18 µg/mL (≈ 2.99 µM). In the case of `CCC(C)C(NCc1ccc(OC)c(OC)c1)c1nc(Cc2ccccc2)c(N2CCCCC2)o1` (stereo not given), the IC50 at 72 h in data set [1] was greater than 10 µg/mL. The concentration for half-maximal inhibition (IC50) in the data set with Trypanosoma brucei (setting [2]) was greater than 5 µg/mL. The corresponding values for `CCC(C)C(NCc1ccc(C)cc1)c1nc(Cc2ccccc2)c(N2CCCCC2)o1` (stereo not given) are greater than 10 µg/mL and greater than 5 µg/mL.

Usually IC50 stands for the concentration needed to halve the response being measured.
